Data reported in patent publication US10807986B2, “Fused pyrimidine compound or salt thereof” (TAIHO PHARMACEUTICAL CO., LTD., priority 2016, dated 2020).

Assay: Evaluation of stability in liver microsome
Details: mouse liver microsome 0.25 mg/mL, test compound 1 μM, 37° C., 30 minutes
Experimental: Solutions of the test compounds in DMSO/acetonitrile (the final concentration of each test compound was 1 μM, the final concentration of DMSO was 0.01%, and the final concentration of acetonitrile was 1%) were individually added to a liver microsome mixture solution (mouse liver microsome with a final concentration of 0.25 mg/mL, a potassium phosphate buffer with a final concentration of 100 mM, and magnesium chloride with a final concentration of 3 mM), and each mixture was pre-incubated at 37° C. for 5 minutes. […] After incubation at 37° C. for 30 minutes, a double amount of ethanol was added thereto to terminate the reaction, thereby obtaining post-reaction samples. A double amount of ethanol was added to each of the remaining mixture solutions, and a NADPH-generating system was further added thereto, thereby obtaining pre-reaction samples. The pre-reaction samples and post-reaction samples were centrifuged at 2000×g, and their supernatant was filtered through a glass filter. Each filtrate was then introduced into LC-MS/MS, and MS/MS peaks of the test compounds were detected. From the ratio of the post-reaction MS/MS peak to the pre-reaction MS/MS peak of the test compounds, the percentage of the remaining test compounds (remaining %) was calculated.

SMILES	Remaining (%)
COCc1ccc(NC(=O)c2c(OC[C@H]3CCCO3)n(C3(C)CC3)c3ncnc(N)c23)cc1 [Example 89, (R)-4-amino-N-[4-(methoxymethyl)phenyl]-7-(1-methylcyclopropyl)-6-((tetrahydrofuran-2-yl)methoxy)-7H-pyrrolo[2,3-d]pyrimidine-5-carboxamide]	69%
COCc1ccc(NC(=O)c2c(C#Cc3cnn(C)c3)n(C3(C)CC3)c3ncnc(N)c23)cc1 [Example 90, 4-amino-N-[4-(methoxymethyl)phenyl]-6-((1-methyl-1H-pyrazol-4-yl)ethynyl)-7-(1-methylcyclopropyl)-7H-pyrrolo[2,3-d]pyrimidine-5-carboxamide]	67%
COCc1ccc(NC(=O)c2c(C#Cc3cnc4cccnn34)n(C3(C)CC3)c3ncnc(N)c23)cc1 [Example 91, 4-amino-6-(imidazo[1,2-b]pyridazin-3-ylethynyl)-N-[4-(methoxymethyl)phenyl]-7-(1-methylcyclopropyl)-7H-pyrrolo[2,3-d]pyrimidine-5-carboxamide]	65%
COCc1ccc(NC(=O)c2c(C#Cc3ccn(C)n3)n(C3(C)CC3)c3ncnc(N)c23)cc1 [Example 92, 4-amino-N-(4-(methoxymethyl)phenyl)-6-((1-methyl-1H-pyrazol-3-yl)ethynyl)-7-(1-methylcyclopropyl)-7H-pyrrolo[2,3-d]pyrimidine-5-carboxamide]	67%
COCc1ccc(NC(=O)c2c(C#Cc3cncn3C)n(C3(C)CC3)c3ncnc(N)c23)cc1 [Example 93, 4-amino-N-(4-(methoxymethyl)phenyl)-6-((1-methyl-1H-imidazol-5-yl)ethynyl)-7-(1-methylcyclopropyl)-7H-pyrrolo[2,3-d]pyrimidine-5-carboxamide]	53%
COCc1ccc(NC(=O)c2c(C#Cc3cccnc3)n(C3(C)CC3)c3ncnc(N)c23)cc1 [Example 94, 4-amino-N-[4-(methoxymethyl)phenyl]-7-(1-methylcyclopropyl)-6-(pyridin-3-ylethynyl)-7H-pyrrolo[2,3-d]pyrimidine-5-carboxamide]	60%
COCc1ccc(NC(=O)c2c(OC[C@@H](C)OC)n(C3(C)CC3)c3ncnc(N)c23)cc1 [Example 96, (R)-4-amino-N-(4-(methoxymethyl)phenyl)-6-(2-methoxypropoxy)-7-(1-methylcyclopropyl)-7H-pyrrolo[2,3-d]pyrimidine-5-carboxamide]	71%
COCc1ccc(NC(=O)c2c(OC[C@@H]3CCCO3)n(C3(C)CC3)c3ncnc(N)c23)cc1 [Example 97, (S)-4-amino-N-(4-(methoxymethyl)phenyl)-7-(1-methylcyclopropyl)-6-((tetrahydrofuran-2-yl)methoxy)-7H-pyrrolo[2,3-d]pyrimidine-5-carboxamide]	70%
COCc1ccc(NC(=O)c2c(OCC(C)C)n(C3(C)CC3)c3ncnc(N)c23)cc1 [Example 99, 4-amino-6-isobutoxy-N-(4-(methoxymethyl)phenyl)-7-(1-methylcyclopropyl)-7H-pyrrolo[2,3-d]pyrimidine-5-carboxamide]	51%
COCc1ccc(NC(=O)c2c(OCC(C)OC)n(C3(C)CC3)c3ncnc(N)c23)cc1 (centres unmarked) [Example 100, 4-amino-N-(4-(methoxymethyl)phenyl)-6-(2-methoxypropoxy)-7-(1-methylcyclopropyl)-7H-pyrrolo[2,3-d]pyrimidine-5-carboxamide]	76%
COCc1ccc(NC(=O)c2c(OCC3CCOC3)n(C3(C)CC3)c3ncnc(N)c23)cc1 (centres unmarked) [Example 101, 4-amino-N-(4-(methoxymethyl)phenyl)-7-(1-methylcyclopropyl)-6-((tetrahydrofuran-3-yl)methoxy)-7H-pyrrolo[2,3-d]pyrimidine-5-carboxamide]	68%
COCc1ccc(NC(=O)c2c(OCC3CCCCO3)n(C3(C)CC3)c3ncnc(N)c23)cc1 (centres unmarked) [Example 102, 4-amino-N-(4-(methoxymethyl)phenyl)-7-(1-methylcyclopropyl)-6-((tetrahydro-2H-pyran-2-yl)methoxy)-7H-pyrrolo[2,3-d]pyrimidine-5-carboxamide]	60%
COCc1ccc(NC(=O)c2c(C#CCC3(O)CCC3)n(C3(C)CC3)c3ncnc(N)c23)cc1 [Example 103, 4-amino-6-(3-(1-hydroxycyclobutyl)prop-1-yn-1-yl)-N-(4-(methoxymethyl)phenyl)-7-(1-methylcyclopropyl)-7H-pyrrolo[2,3-d]pyrimidine-5-carboxamide]	60%
COCc1ccc(NC(=O)c2c(C#CC(O)C3CC3)n(C3(C)CC3)c3ncnc(N)c23)cc1 (centres unmarked) [Example 104, 4-amino-6-(3-cyclopropyl-3-hydroxyprop-1-yn-1-yl)-N-(4-(methoxymethyl)phenyl)-7-(1-methylcyclopropyl)-7H-pyrrolo[2,3-d]pyrimidine-5-carboxamide]	52%
COCc1ccc(NC(=O)c2c(C#CCN3CCCCC3)n(C3(C)CC3)c3ncnc(N)c23)cc1 [Example 105, 4-amino-N-[4-(methoxymethyl)phenyl]-7-(1-methylcyclopropyl)-6-(3-(piperidin-1-yl)prop-1-yn-1-yl)-7H-pyrrolo[2,3-d]pyrimidine-5-carboxamide]	52%
COCc1ccc(NC(=O)c2c(/C=C/CO)n(C3(C)CC3)c3ncnc(N)c23)cc1 [Example 109, (E)-4-amino-6-(3-hydroxyprop-1-en-1-yl)-N-(4-(methoxymethyl)phenyl)-7-(1-methylcyclopropyl)-7H-pyrrolo[2,3-d]pyrimidine-5-carboxamide]	68%
COCc1ccc(NC(=O)c2c(C#Cc3ccccc3OC)n(C3(C)CC3)c3ncnc(N)c23)cc1 [Example 113, 4-amino-N-(4-(methoxymethyl)phenyl)-6-((2-methoxyphenyl)ethynyl)-7-(1-methylcyclopropyl)-7H-pyrrolo[2,3-d]pyrimidine-5-carboxamide]	79%
CCn1nccc1C#Cc1c(C(=O)Nc2ccc(COC)cc2)c2c(N)ncnc2n1C1(C)CC1 [Example 114, 4-amino-6-((1-ethyl-1H-pyrazol-5-yl)ethynyl)-N-(4-(methoxymethyl)phenyl)-7-(1-methylcyclopropyl)-7H-pyrrolo[2,3-d]pyrimidine-5-carboxamide]	55%
CCOc1c(C(=O)Nc2ccc(-c3ccco3)cc2)c2c(N)ncnc2n1C1(C)CC1 [Example 116, 4-amino-6-ethoxy-N-(4-(furan-2-yl)phenyl)-7-(1-methylcyclopropyl)-7H-pyrrolo[2,3-d]pyrimidine-5-carboxamide]	55%
CCn1cc(C#Cc2c(C(=O)Nc3ccc(COC)cc3)c3c(N)ncnc3n2C2(C)CC2)cn1 [Example 118, 4-amino-6-((1-ethyl-1H-pyrazol-4-yl)ethynyl)-N-(4-(methoxymethyl)phenyl)-7-(1-methylcyclopropyl)-7H-pyrrolo[2,3-d]pyrimidine-5-carboxamide]	73%
COCc1ccc(NC(=O)c2c(C#Cc3cccs3)n(C3(C)CC3)c3ncnc(N)c23)cc1 [Example 119, 4-amino-N-(4-(methoxymethyl)phenyl)-7-(1-methylcyclopropyl)-6-(thiophen-2-ylethynyl)-7H-pyrrolo[2,3-d]pyrimidine-5-carboxamide]	70%
COCc1ccc(NC(=O)c2c(C#Cc3ccc(Cl)nc3)n(C3(C)CC3)c3ncnc(N)c23)cc1 [Example 120, 4-amino-6-((6-chloropyridin-3-yl)ethynyl)-N-(4-(methoxymethyl)phenyl)-7-(1-methylcyclopropyl)-7H-pyrrolo[2,3-d]pyrimidine-5-carboxamide]	72%
COCc1ccc(NC(=O)c2c(C#Cc3c[nH]c4ccccc34)n(C3(C)CC3)c3ncnc(N)c23)cc1 [Example 121, 6-((1H-indol-3-yl)ethynyl)-4-amino-N-(4-(methoxymethyl)phenyl)-7-(1-methylcyclopropyl)-7H-pyrrolo[2,3-d]pyrimidine-5-carboxamide]	74%
COCc1ccc(NC(=O)c2c(C#Cc3cccc(NCc4ccncc4)c3)n(C3(C)CC3)c3ncnc(N)c23)cc1 [Example 122, 4-amino-N-(4-(methoxymethyl)phenyl)-7-(1-methylcyclopropyl)-6-((3-((pyridin-4-ylmethyl)amino)phenyl)ethynyl)-7H-pyrrolo[2,3-d]pyrimidine-5-carboxamide]	62%
COCc1ccc(NC(=O)c2c(C#CCC3(O)COC3)n(C3(C)CC3)c3ncnc(N)c23)cc1 [Example 125, 4-amino-6-(3-(3-hydroxyoxetan-3-yl)prop-1-yn-1-yl)-N-(4-(methoxymethyl)phenyl)-7-(1-methylcyclopropyl)-7H-pyrrolo[2,3-d]pyrimidine-5-carboxamide]	74%
COCc1ccc(NC(=O)c2c(C#Cc3csc(C)n3)n(C3(C)CC3)c3ncnc(N)c23)cc1 [Example 126, 4-amino-N-(4-(methoxymethyl)phenyl)-7-(1-methylcyclopropyl)-6-((2-methylthiazol-4-yl)ethynyl)-7H-pyrrolo[2,3-d]pyrimidine-5-carboxamide]	69%
CCOc1c(C(=O)Nc2ccc(COC)cc2)c2c(N)ncnc2n1C1(C)CC1 [Example 127, 4-amino-6-ethoxy-N-(4-(methoxymethyl)phenyl)-7-(1-methylcyclopropyl)-7H-pyrrolo[2,3-d]pyrimidine-5-carboxamide]	70%
COCc1ccc(NC(=O)c2c(C#Cc3cnc4[nH]ccc4c3)n(C3(C)CC3)c3ncnc(N)c23)cc1 [Example 128, 6-((1H-pyrrolo[2,3-b]pyridin-5-yl)ethynyl)-4-amino-N-(4-(methoxymethyl)phenyl)-7-(1-methylcyclopropyl)-7H-pyrrolo[2,3-d]pyrimidine-5-carboxamide]	82%
COCc1ccc(NC(=O)c2c(C#Cc3ccn[nH]3)n(C3(C)CC3)c3ncnc(N)c23)cc1 [Example 129, 6-((1H-pyrazol-5-yl)ethynyl)-4-amino-N-(4-(methoxymethyl)phenyl)-7-(1-methylcyclopropyl)-7H-pyrrolo[2,3-d]pyrimidine-5-carboxamide]	54%
